The test system of assay [1] is ΔMTHFD2 cells. As to conditions: addition of formate to ΔMTHFD2 cells (from HEK293T). How it is done:
AICAR in wild type HEK293T cells and cells lacking a key enzyme producing formyl-THF, MTHFD2, was measured by LC-MS. See e.g., Fan et al., Nature 510: 298-302, 2014. […] The ΔMTHFD2 cells lacking MTHFD2 were produced from HEK293T cells by CRISPR (clustered regularly interspaced short palindromic repeat)-mediated knockout.

Assay [2] concerns HEK293T cells. The assay can be described thus: U13C tracer labeling of the one-carbon unit pool. The format is cell-based. As to conditions: 48 h, ADP purine ring and dTTP methyl labeling. The protocol: In order to determine contribution of the single carbon, cells were cultured with media containing [U ^13C] serine for 48 h, washed three times with cold PBS to remove extracellular serine, extracted, and the intracellular labeling pattern analyzed by LC-MS for ATP (representing purines; there is no labeling of ribose-phosphate based on LC-MS measurements), glycine and serine. See e.g., Fan et al., Nature 510: 298-302, 2014.
Purine ring labeling is indicative of formyl-THF labeling.

Assay [3] concerns NADPH/NADP+ ratio. Description: Cellular effect of anti-folate therapy on the NADPH/NADP+ ratio. To be noted: methotrexate 500 nM. The format is cell-based.
The test system of assay [4] is HEK293T cells. As to conditions: 24 h, +5 mM glycine, DMEM with or without serine.
Description: (§2) Metabolites were then harvested by quickly aspirating media, washing with PBS buffer, and immediately adding −80° C. 80:20 methanol: water extraction solution at −80° C. Following quenching, the tissue culture dish was incubated at −80° C. for 15 min, and then the cells were scraped from the plate. After centrifuging the cell suspension at 5300×g for 10 min, the supernatant was kept and the debris was re-extracted with −80° C. 80:20 methanol:water. The resulting suspension was centrifuged again and the supernatant was combined with first supernatant. […] LC separation was by reversed-phase ion-pairing chromatography with tributylamine as the ion-pairing agent. MS analysis was on a stand-alone orbitrap mass analyzer (Thermo Scientific) operated in negative ion mode and scanning from m/z 85-1000 at 1 Hz at 100,000 resolution. Data were analyzed using the MAVEN software suite. All observed LC-MS peaks were in analyzed, including those of roughly 100 known water-soluble metabolites.
The subject of assay [5] is HEK293T cells.
Description: To measure cellular folates, media was removed from HEK293T cells, and replaced with 50:50 methanol:water with 25 mM ammonium acetate and 1% sodium ascorbate, at −20° C. […] After 15 min on ice, the cells were scraped from the dish to further enhance extraction, and the cell-liquid mixture was centrifuged to remove particulate matter. The particulate matter was re-extracted with the same solvent for 15 minutes, and the 2 extracts were combined. The resulting combined extract was treated with rat serum to hydrolyze the polyglutamate chains of folate polyglutamates. […] The resulting mixture was passed through a phenyl solid phase extraction column which removes proteins, highly soluble metabolites, salts and further concentrates the folate species, which were then analyzed by in high resolution LC-MS.
In assay [6] the test system is HEK293 cell. As to conditions: 3 days. From the text: (§1) It is hypothesized that high glycine is driving the backwards SHMT reaction while also impairing the forward reaction by product inhibition.
The subject of assay [7] is HEK293 cells. To be noted: DMEM lacking serine, 3 days.
Text: as §1

The subject of assay [8] is HEK293T cells. As to conditions: absence of exogenous serine, 0.4 mM glycine, or addition of 2 mM or 5 mM glycine.
Description: Cell growth was measured in an incubator containing 5% CO2 at 37° C.
Assay [9] deals with tumor growth. To be noted: patients; current best therapy plus glycine supplementation therapy.
Text: Individuals providing informed consent to enter the trial are randomized to the current best therapy or current best therapy plus glycine supplementation therapy arms.
The glycine supplementation therapy arm involves providing increased total intake of glycine and/or decreased total intake of serine so as to achieve an increased ratio of glycine to serine intake. The clinical course of patients enrolled in the trial is monitored with respect to endpoints selected based on the disease state, e.g., for stage IV lung cancer, changes in tumor volume, progression-free survival, and overall survival, as well as side effects of the treatment regimen.
In assay [10] the test system is HEK293T cells. To be noted: 24 h, addition of glycine (5 mM).
Description: as §2
HEK293T cells were cultured in the conditions described in Example 2. In addition to measuring metabolite concentrations, important metabolite ratios, e.g., NADH/NAD+, NADPH/NADP+, ATP/ADP, were calculated.
Assay [11] relates to HCT116 cells. To be noted: HCT116 xenograft in CD-1-Foxn1nu female mice; high (2×-5× normal) glycine diets.
Description: Approximately 3×10^6 HCT116 cells (or other tumor-forming transformed cells) are injected on the flank of approximately 8 week CD-1-Foxn1nu female mice (Charles River) or similar rodents. To compare cell lines or gather data more rapidly, different cell lines can be ejected on the 2 flanks (right and left) of each mouse. […] Numbers of mice are selected in order to obtain appropriate statistical power, with 6-20 mice per group typical.

Read-outs that look alike come from different tables or passages of the source.

In the case of `O=CO` [formate], the AICAR accumulation result in assay [1] is “eliminates the AICAR accumulation”.

With `N[C@@H](CO)C(=O)O` [serine, reference compound], in [2], the “contribution to the cellular one-carbon unit pool” value is “contributes to the cellular one-carbon unit pool”.

`CN(Cc1cnc2nc(N)nc(N)c2n1)c1ccc(C(=O)N[C@@H](CCC(=O)O)C(=O)O)cc1` [methotrexate]: the “NADPH/NADP+ ratio” value in assay [3] is “decrease”.

As for `NCC(=O)O` [glycine], the “contribution to the cellular one-carbon unit pool” value in assay [2] is on record as “does not contribute one carbon units”. In assay [4], the intracellular serine levels entry is listed as “enhanced”. Moreover, in assay [5] (glycine addition), the AICAR entry is “rise”. In addition, in [5] (presence of glycine when serine is absent, 1× and 10× relative to standard DMEM), the “Formyl-THF and methyl-THF levels” value is reported as “decrease”. Also, the “decrease in final cell number relative to growth in complete DMEM” value is reported as “approximately 30%” in assay [6] (DMEM lacking serine, 1× glycine); “approximately 70%” in assay [6] (serine removal and addition of 12× glycine). In addition, the “Relative NADPH/NADP+” value in [7] (1× glycine, complete DMEM approximately 1) was “approximately 0.7”; in assay [7] (addition of 12× glycine) it was “approximately 0.45”. Also, the transformed cell growth result in assay [8] is reported as “inhibits transformed cell growth”. The “tumor growth and tumor progression” value in assay [9] is “will reduce tumor growth and slow tumor progression”; in assay [11], “will reduce tumor growth and slow tumor progression”. In assay [10], the ATP/ADP ratio result was “significantly decreased”. Also, in assay [10], the “decrease in the NADPH/NADP+ ratio” value was “approximately 2 fold”.

The values are drawn from US11147784B2, “Dietary supplements and composition for treating cancer” (The Trustees of Princeton University, priority 2013, dated 2021).
